Like-named read-outs stand apart in the source and are kept apart here.
Assays:
[1] = system: panel of approximately sixty human tumor cell lines; assay: NCI-60 human tumor cell lines screen (SRB), full panel; type: cell-based; conditions: 10 μM; for activity at 10 µM: Homo sapiens, 60 cell lines assay in one dose, 48 h; for Positive Cytostatic Effect / Positive Cytotoxic Effect: one dose; for Positive Cytostatic Effect: ratio of number of cell lines with percent growth from 0 to 50 to total number of cell lines; for Positive Cytotoxic Effect: ratio of number of cell lines with percent growth of <0 to total number of cell lines
Method: Compounds 2a, 2c–f, 2h–l, 3, 5e, 5f were selected for antitumor activity which was performed according to the standard protocols of National Cancer Institute (NCI, Bethesda, MD, USA) Developmental Therapeutic Program (DTP). At the prescreening stage, the compounds were evaluated for antitumor activity at the concentration of 10 µM against a panel of approximately sixty cancer cell lines representing different types of cancer including leukemia, melanoma, lung, colon, CNS, ovarian, renal, prostate and breast cancers.
Among them, three compounds (2d, 2h, 2i) presented excellent cytotoxic and four derivatives (2d, 2h, 2i, 2k) cytostatic properties in one or more cell lines when applied at a concentration of 10 µM. […] The outcomes were calculated and presented in the form of three response parameters (GI50, TGI and LC50) for each cell line via growth percentage inhibition curves. […]
The primary anticancer assay was performed on a panel of approximately sixty human tumor cell lines derived from nine neoplastic diseases (leukemia, melanoma, lung, colon, CNS, ovarian, renal, prostate, and breast cancers), in accordance with the protocol of the National Cancer Institute Drug Evaluation Branch (Bethesda, MD, USA). Tested compounds were added to the culture at a single concentration (10^−5 M) and the cultures were incubated for 48 h. End-point determinations were made with a protein-binding dye, sulforhodamine B (SRB). Results for each tested compound were reported as the percentage of the growth of the treated cells when compared to the untreated control cells. The percentage of the growth was evaluated spectrophotometrically versus controls not treated with test agents. […] Using absorbance measurements [time zero (Tz), control growth in the absence of drug (C), and test growth in the presence of the drug (Ti)], the percentage growth was calculated for each drug concentration. Percentage growth inhibition was calculated as:[(Ti − Tz)/[…]] × 100(1) for concentrations for which Ti ≥ Tz, [(Ti − Tz)/Tz] × 100 for concentrations for which Ti < Tz. Dose-response parameters (GI50, TGI) were calculated for each compound. Growth inhibition of 50% (GI50) was calculated from [(Ti − Tz)/(C − Tz)] × 100 = 50, which is the drug concentration resulting in a 50% lower net protein increase in the treated cells (measured by SRB staining) as compared to the net protein increase seen in the control cells. The drug concentration resulting in total growth inhibition (TGI) was calculated from Ti = Tz. Values were calculated for each of these parameters if the level of activity was reached; however, if the effect was not reached or was excessive, the value for that parameter was expressed as more or less than the maximum or minimum concentration tested. The lowest values were obtained with the most sensitive cell lines. Compounds having GI50 values ≤ 100 μM were declared to be active. The selectivity index (SI) calculated by dividing the full panel MG_MID (full-panel mean-graph midpoint) (μM) of the compounds 2h and 2i by their individual subpanel MG_MID of a cell line (μM) was considered as a measure of compounds’ selectivity. Ratios between 3 and 6 mean moderate selectivity, ratios greater than 6 indicate high selectivity toward the corresponding cell line, while compounds not meeting either of these criteria are rated nonselective.

[2] = system: phospholipase C-γ2 (PLC-γ2); design: method as in PMID 19303309; conditions: at 15 µM; cited from earlier work
[3] = system: phospholipase C-γ2 (PLC-γ2); design: method as in PMID 19303309; conditions: at 15 µM; cited from earlier work; remark: listed apart in the source

Compound | activity at 10 µM ([1]; read-out: Mean Growth, %) [%] | activity at 10 µM ([1]; read-out: Range of Growth, %) [%] | Positive Cytostatic Effect [1] | Positive Cytotoxic Effect [1] | melting point [°C] | PLC-γ2 inhibition, calcium release cell-based assay [2] | PLC-γ2 inhibition, biochemical assay [3]
O=c1c(=Cc2cccs2)sc2ncnn12 [Compound 2k, (Z)-5-(Thiophen-2-y-lmethylene)thiazolo[3,2-b][1,2,4]triazol-6(5H)-one] | 111 | 25.2 to 180 | 1/56 | 0/56 |  |  | 
O=C(O)CSc1nnc[nH]1 [Compound 3, 2-((1H-1,2,4-Triazol-3-yl)thio)acetic Acid] | 97.2 | 74.8 to 122 | 0/59 | 0/59 |  |  | 
COc1ccccc1/C=c1\sc2ncnn2c1=O [Compound 2b, (Z)-5-(2-Methoxybenzylidene)thiazolo[3,2-b][1,2,4]triazol-6(5H)-one] |  |  |  |  | 196 to 198 |  | 
CCN(CC)c1ccc(/C=c2\sc3ncnn3c2=O)cc1 [Compound 2e, (Z)-5-(4-(Diethylamino)benzylidene)thiazolo[3,2-b][1,2,4]triazol-6(5H)-one] | 102 | 61.9 to 134 | 0/58 | 0/58 |  |  | 
CC(=O)Oc1ccc(/C=c2\sc3ncnn3c2=O)cc1 [Compound 2d, (Z)-4-((6-Oxothiazolo[3,2-b][1,2,4]triazol-5(6H)-ylidene)methyl)phenyl acetate] | 99.7 | -73.9 to 148 | 2/58 | 3/58 |  |  | 
O=c1/c(=C/Nc2ccc(Cl)cc2)sc2ncnn12 [Compound 5f, (E/Z)-5-(((4-Chlorophenyl)amino)methylene)thiazolo[3,2-b][1,2,4]triazol-6(5H)-one] | 93.6 | 54.4 to 112 | 0/59 | 0/59 |  |  | 
O=c1/c(=C/Nc2cccc(O)c2)sc2ncnn12 [Compound 5e, (E/Z)-5-(((3-Hydroxyphenyl)amino)methylene)thiazolo[3,2-b][1,2,4]triazol-6(5H)-one] | 101 | 80.3 to 138 | 0/59 | 0/59 |  |  | 
C=CCOc1ccccc1/C=c1\sc2ncnn2c1=O [Compound 2c, (Z)-5-(2-(Allyloxy)benzylidene)thiazolo[3,2-b][1,2,4]triazol-6(5H)-one] | 103 | 77.1 to 146 | 0/59 | 0/59 |  |  | 
O=c1/c(=C/c2ccco2)sc2ncnn12 [Compound 2j, (Z)-5-(Furan-2-ylmethylene)thiazolo[3,2-b][1,2,4]triazol-6(5H)-one] | 106 | 82.4 to 136 | 0/56 | 0/56 |  |  | 
O=c1/c(=C/N2CCN(CCO)CC2)sc2ncnn12 [Compound 6c, (Z)-5-((4-(2-Hydroxyethyl)piperazin-1-yl)methylene)thiazolo[3,2-b][1,2,4]triazol-6(5H)-one] |  |  |  |  | 189 to 192 |  | 
O=c1/c(=C/N2CCCCC2)sc2ncnn12 [Compound 6b, (Z)-5-(Piperidin-1-ylmethylene)thiazolo[3,2-b][1,2,4]triazol-6(5H)-one] |  |  |  |  | 190 to 192 |  | 
CCOC(=O)N1CCN(/C=c2\sc3ncnn3c2=O)CC1 [Compound 6d, Ethyl(Z)-4-((6-oxothiazolo[3,2-b][1,2,4]triazol-5(6H)-ylidene)methyl)piperazine-1-carboxylate] |  |  |  |  | 204 to 206 |  | 
O=c1/c(=C/N2CCc3ccccc32)sc2ncnn12 [Compound 6a, (Z)-5-(Indolin-1-ylmethylene)thiazolo[3,2-b][1,2,4]triazol-6(5H)-one] |  |  |  |  | > 250 |  | 
O=c1/c(=C/c2ccccc2[N+](=O)[O-])sc2nc(-c3ccc(F)cc3)nn12 [CCT-196700] |  |  |  |  |  | satisfactory activity parameters | satisfactory activity parameters
Cc1cccc(NC(=O)COc2ccc(Cl)cc2/C=c2\sc3ncnn3c2=O)c1 [Compound 2g, (Z)-2-(4-Chloro-2-((6-oxothiazolo[3,2-b][1,2,4]triazol-5(6H)-ylidene)methyl)phenoxy)-N-(m-tolyl)acetamide] |  |  |  |  | 260 to 262 |  | 
COc1ccc(/C=c2\sc3ncnn3c2=O)cc1OC [Compound 2f, (Z)-5-(3,4-Dimethoxybenzylidene)thiazolo[3,2-b][1,2,4]triazol-6(5H)-one] | 108 | 86.7 to 262 | 0/57 | 0/57 |  |  | 
CC(=O)n1cc(/C=c2\sc3ncnn3c2=O)c2ccccc21 [Compound 2l, (Z)-5-((1-Acetyl-1H-indol-3-yl)methylene)thiazolo[3,2-b][1,2,4]triazol-6(5H)-one] | 105 | 66.9 to 141 | 0/59 | 0/59 |  |  | 
O=c1/c(=C/c2ccccc2F)sc2ncnn12 [Compound 2a, (Z)-5-(2-Fluorobenzylidene)thiazolo[3,2-b][1,2,4]triazol-6(5H)-one] | 90 | 52.8 to 123 | 0/59 | 0/59 |  |  | 

From publication PMC7926352, “Synthesis, Characterization and In Vitro Evaluation of Novel 5-Ene-thiazolo[3,2-b][1,2,4]triazole-6(5H)-ones as Possible Anticancer Agents” (Molecules, 2021)
